Laboratory results published in patent US6083958A, “Anti-HIV composition containing imidazole derivative” (Shionogi & Co., Ltd., priority 1996, dated 2000).
Values after ≈ are worked out from the molar mass of the structure shown.

What was measured:
[1] = system: HIV-1 IIIB strain clone 3; assay: Suppression of the emergence of drug resistant variants in M 8166 cells; format: cell-based; settings: for Week of emergence of resistant mutants: CDIMI 1 ng/ml, ddC 50 ng/ml at start, doubled on viral growth; for Ratio of resistance compared to parent strain: isolated resistant virus vs parent strain
Protocol: an T cell line Molt-4 cells persistently infected with HIV-1 (IIIB strain clone 3) were cultured in RPMI-1640 medium supplemented with 10% fetal calf serum, the supernatant was filtered and stored at […], after the virus titer was determined.
One ml of the above medium containing 10^6 cells of M 8166 was added to each well of 12-well plates, and 100 μl of the above HIV-1 IIIB strain clone 3 was added, and incubated for 2 hours for virus infection. Cells were washed with the above medium, and 4 ml of the medium containing CDIMI or other anti-HIV compounds alone or their combination was added to each well and incubated in 5% CO2 incubator at 37° C. CDIMI was added at 1 ng/ml and ddC was added at 50 ng/ml respectively and the same concentrations of them were added for the combination. Cells were subcultured twice a week, and when viral growth was observed, the drug concentration of the anti-HIV compound was doubled. In the case that no viral growth was observed, the drug concentration was kept the same as that of the last culture.
Virus titer was determined using viral reverse transcriptase activity as a marker by the following method.
To 100 μl of the reaction mixture containing 50 mM Tris-HCl, pH 8.3, 150 mM KCl, 10 mM MgCl2, 0.1% Nonidet P-40, 10 mM dithiothreitol, 5 μg/ml poly(A), 5 μg/ml (dT) 12-18, and 1 μCi [^3 H] dTTP was added 10 μl of the culture supernatant, and incubated at 37° C. for 3 hours. The reaction mixture was chilled on ice and collected by a cell harvester on a DEAE-Filtermat. The filter was washed with 5% Na2 HP04.12H2 O and H2 O, and the radioactivity incorporated in DNA was measured by an LKB Beta Plate scintillation counter to determine viral reverse transcriptase activity.
When virus growth was observed, viruses were isolated and the sensitivity to each active ingredient was assayed by the usual method.

D67N + K70R = assay: microbe, parasite or virus in culture; format: cell-based, HIV
Protocol: (§1) The mutant clones' cDNAs were transfected to SW480 cells. The produced mutant viruses were infected to MT-4 cells in the same method as described in Experiment 1 in the presence of the drug. After 4 days, viral growth was assayed using reverse transcriptase activity as a marker.

L234I = assay: microbe, parasite or virus in culture; format: cell-based, HIV; settings: Human immunodeficiency virus 1, MT4, 96 h
Protocol: as §1

T215Y + L234I = assay: microbe, parasite or virus in culture; format: cell-based, HIV
Protocol: as §1

Y181C = assay: microbe, parasite or virus in culture; format: cell-based, HIV; settings: Human immunodeficiency virus 1, MT4, 96 h
Protocol: as §1

V106A + F227L = assay: microbe, parasite or virus in culture; format: cell-based, HIV; settings: Human immunodeficiency virus 1, MT4, 96 h
Protocol: as §1

NL432 (Wild strain) = assay: microbe, parasite or virus in culture; format: cell-based, HIV; settings: Human immunodeficiency virus 1, MT4, 96 h
Protocol: as §1

F227C = assay: microbe, parasite or virus in culture; format: cell-based, HIV; settings: Human immunodeficiency virus 1, MT4, 96 h
Protocol: as §1

T215Y = assay: microbe, parasite or virus in culture; format: cell-based, HIV
Protocol: as §1

[2] = system: HIV-1 (IIIB strain clone 2); assay: Synergy of anti-HIV activity, viral reverse transcriptase activity in supernatant of infected MT-4 cells (checker board); format: cell-based
Protocol: Human T cell line Molt-4 cells persistently infected with HIV-1 (IIIB strain clone 2) were cultured in RPMI-1640 medium supplemented with 10% fetal calf serum, and the supernatant was filtered and stored at -80° C. after the virus titer was determined.
The combination of these two drugs was conducted by the checker board method using 96-well microplates. […] After 4 hours, 50 μl of the culture supernatant of the above HIV-1 IIIB strain clone 2 was added, at the same time 50 μl of CDIMI in two-fold dilution was also added, followed by incubation in 5% CO2 incubator at 37° C. for 5 days.
Virus titers in the culture supernatant were calculated by taking viral reverse transcriptase activity as an index determined by the following method:
To 100 μl of a reaction mixture containing 50 mM Tris-HCl, pH 8.3, 150 mM KCl, 10 mM MgCl2, 0.1% Nonidet P-40, 10 mM dithiothreitol, 5 μg/l poly(A), 5 μg/ml (dT)12-18, and 1 μCi [^3 H]dTTP was added 10 μl of the culture supernatant, and incubated at 37° C. for 3 hours. The reaction mixture was chilled on ice and transferred by a cell harvester to a DEAE-Filtermat. The filter was washed with 5% Na2 HPO4.12H2 O and H2 O, and the radioactivity incorporated in DNA was measured by an LKB Beta Plate scintillation counter to determine viral reverse transcriptase activity.
On the assumption that the inhibition of the two anti-HIV compounds was additive, virus growth inhibition rate was calculated on all combinations of concentrations according to the formula (I)
wherein Z means an additive inhibition rate, X is an inhibition rate of CDIMI and Y is an inhibition rate of the other anti-HIV compound.
When the measured value is greater than the additive inhibition rate, namely, the value is more than 0 in Table 3, it is judged as having synergy. Synergy volume is designated as total sum of values more than 0 in Table 3.
Addition to cells of saquinavir and foscarnet was done at the same time as that of CDIMI when the virus was infected. […]

[3] = system: CDIMI resistant or AZT resistant mutant clones of HIV; assay: Cross resistance of CDIMI resistant and AZT resistant mutant clones; format: cell-based
Protocol: as §1

[4] = Human immunodeficiency virus 1, MT4, 96 h

## Nc1ccn([C@H]2CC[C@@H](CO)O2)c(=O)n1 [ddC, dideoxycytidine, reference compound]
[1]
  Week of emergence of resistant mutants: 1 weeks
  Ratio of resistance compared to parent strain: 20 times

## CC(C)c1nc(COC(N)=O)n(Cc2ccncc2)c1Sc1cc(Cl)cc(Cl)c1 [CDIMI, 2-carbamoyloxymethyl-5-(3,5-dichlorophenylthio)-4-iropropyl-1-(pyridin-4-yl) methyl-1H-imidazole]
[1]
  Week of emergence of resistant mutants: 4 weeks
  Ratio of resistance compared to parent strain: 10 times
D67N + K70R; D67N plus K70R
  sensitivity of strain: equivalent to that of the wild strain
D67N + K70R; [4]
  EC50: 0.31 ng/mL (≈ 0.687 nM)
  EC90: 1 ng/mL (≈ 2.22 nM)
L234I
  EC50: 6.8 ng/mL (≈ 15.1 nM)
  EC90: 14 ng/mL (≈ 31 nM)
T215Y + L234I; [4]
  EC50: 0.69 ng/mL (≈ 1.53 nM)
  EC90: 2.7 ng/mL (≈ 5.98 nM)
T215Y + L234I; T215Y plus L234I
  sensitivity of strain: sensitive to CDIMI and AZT at the same level as the wild strain's
Y181C
  EC50: 4.2 ng/mL (≈ 9.3 nM)
  EC90: 18 ng/mL (≈ 39.9 nM)
V106A + F227L
  EC50: 117 ng/mL (≈ 259 nM)
  EC90: 310 ng/mL (≈ 687 nM)
NL432 (Wild strain)
  EC50: 0.31 ng/mL (≈ 0.687 nM)
  EC90: 1.1 ng/mL (≈ 2.44 nM)
F227C
  EC50: 2.4 ng/mL (≈ 5.32 nM)
  EC90: 9.8 ng/mL (≈ 21.7 nM)
T215Y; [4]
  EC50: 0.17 ng/mL (≈ 0.377 nM)
  EC90: 0.4 ng/mL (≈ 0.886 nM)
T215Y; T215Y
  sensitivity of strain: equivalent to that of the wild strain
[2]; Human immunodeficiency virus 1, IIIB, MT4, read-out: inhibition rate X of CDIMI
  inhibition at 0.005 µg/mL: 99.6%
[2]; ddI 0 ng/ml (Table 4), lines in order CDIMI 5, 2.5, 1.25, 0.625, 0.313, 0.16, 0.08 ng/ml, 7200 min
  reverse transcriptase inhibition rate (%): 99.01%
[3]
  cross resistance: do not show cross resistance

## Cc1cn([C@H]2C[C@H](N=[N+]=[N-])[C@@H](CO)O2)c(=O)[nH]c1=O [AZT, azidodeoxythymidine, reference compound]
[2]; Human immunodeficiency virus 1, IIIB, MT4, read-out: inhibition rate Y of the other anti-HIV compound
  inhibition at 0.0008 µg/mL: 43.4%
